Results from patent US7655392B2, “Quenching methods for red blood cell inactivation process” (priority 2004, dated 2010).
Like-named read-outs stand apart in the source and are kept apart here.

Key:
[1] = system: Vesicular Stomatitis Virus (VSV); type: cell-based
red blood cells = system: red blood cells
Text: Methods for determining ATP, 2,3-DPG, glucose, hemoglobin, hemolysis, and potassium are available in the art. See for example, Davey et al., Transfusion, 32:525-528 (1992), the disclosure of which is incorporated herein. Methods for determining red blood cell function are also described in Greenwalt et al., Vox Sang, 58:94-99 (1990); Hogman et al., Vox Sang, 65:271-278 (1993); and Beutler et al., Blood, Vol. 59 (1982) the disclosures of which are incorporated herein by reference. For example, intracellular ATP and intracellular 2,3-DPG are measured using a Sigma ATP kit or 2,3-DPG kit (Sigma, St. Louis, Mo.). The ATP kit is used following Sigma procedure No. 366-UV, the disclosure of which is hereby incorporated by reference. […] The extracellular pH is measured by centrifuging the cells at 4° C. for 15 minutes at 12,000×g and removing the supernatant, for which the pH is measured using a standard pH meter at room temperature (e.g. Beckman, Epoxy Calomel electrode). For the intracellular pH, the remaining pellet is capped in the centrifuge tube and stored at about −80° C. for at least 2 hours. This is then lysed by the addition of deionized water. […] Measurements can be made shortly after treatment and as a function of post treatment storage, for example storage for up to 42 days.
Full units of red cell concentrates (Interstate Blood Bank, Inc., Memphis, Tenn.) were leukoreduced. A volume of 200 mL of this RCC (80% hematocrit) was mixed with 94 mL of Erythrosol or 100 mL of Adsol (Baxter Healthcare Corp., Deerfield, Ill.) as control (unit 1). A volume of 20 mL 8% dextrose was used to dissolve PIC-1 (mg) and acid glutathione (mg) and added to one unit to provide 0.2 mM PIC-1 and 2 mM glutathione (unit 2). […] For the glutathione, 1.2 mL of 10 N NaOH was added (2 equivalents). The PIC-1 was mixed with the unit, followed 1 minute later (unit 3) or 5 minutes later (unit 4) by glutathione. For unit 5, neutralized glutathione was mixed first, followed 10 minutes later by the PIC-1. […] All units were mixed by grasping the ends of the blood bag and mixing in a FIG. 8 motion 30 times. These were then incubated at room temperature for 20 hours total. A compound adsorption device (CAD), comprising a polymeric resin contained within a mesh pouch, was used for all but the control sample. This device is intended to remove residual PIC-1, PIC-1 breakdown products, and glutathione from the samples. Samples were incubated for 8 hours, then transferred to a second blood bag containing the CAD and incubated for an additional 12 hours. Following the room temperature incubation, samples were transferred to a refrigerator (4° C.) and stored up to 43 days. Aliquots were removed from each unit 12 hours and 20 hours post mixing, and every week thereafter. Aliquots were analyzed for total hemoglobin, pH, intracellular ATP, plasma hemoglobin, potassium, extracellular glucose and extracellular lactate.

[2] = Table 6A: 20 mM glutathione+2 eq base only, no PIC-1

Structure (SMILES): O=C(CCNc1c2ccccc2nc2ccccc12)OCCN(CCCl)CCCl [PIC-1]
- inactivation of a high titer of VSV [1]: essentially complete inactivation
- Percent Hemolysis (red blood cells; 16B day 0, sample 2: standard 0.2 mM PIC-1+2 mM GSH): 0.22%
- Percent Hemolysis (red blood cells; 16B day 0, sample 3: 0.2 mM PIC-1, 1' delay, 20 mM GSH+2 eq base): 0.19%
- Percent Hemolysis (red blood cells; 16B day 0, sample 4: 0.2 mM PIC-1, 5' delay, 20 mM GSH+2 eq base): 0.19%
- Percent Hemolysis (red blood cells; 16B day 0, sample 5: 20 mM GSH+2 eq base, 10' delay, 0.2 mM PIC-1): 0.19%
- Percent Hemolysis (red blood cells; 16B day 0.5, sample 2: standard 0.2 mM PIC-1+2 mM GSH): 0.24%
- Percent Hemolysis (red blood cells; 16B day 0.5, sample 3: 0.2 mM PIC-1, 1' delay, 20 mM GSH+2 eq base): 0.16%
- Percent Hemolysis (red blood cells; 16B day 0.5, sample 4: 0.2 mM PIC-1, 5' delay, 20 mM GSH+2 eq base): 0.25%
- Percent Hemolysis (red blood cells; 16B day 0.5, sample 5: 20 mM GSH+2 eq base, 10' delay, 0.2 mM PIC-1): 0.24%
- Percent Hemolysis (red blood cells; 16B day 0.8, sample 2: standard 0.2 mM PIC-1+2 mM GSH): 0.46%
- Percent Hemolysis (red blood cells; 16B day 0.8, sample 3: 0.2 mM PIC-1, 1' delay, 20 mM GSH+2 eq base): 0.40%
- Percent Hemolysis (red blood cells; 16B day 0.8, sample 4: 0.2 mM PIC-1, 5' delay, 20 mM GSH+2 eq base): 0.48%
- Percent Hemolysis (red blood cells; 16B day 0.8, sample 5: 20 mM GSH+2 eq base, 10' delay, 0.2 mM PIC-1): 0.47%
- Percent Hemolysis (red blood cells; 16B day 7, sample 2: standard 0.2 mM PIC-1+2 mM GSH): 0.62%
- Percent Hemolysis (red blood cells; 16B day 7, sample 3: 0.2 mM PIC-1, 1' delay, 20 mM GSH+2 eq base): 0.35%
- Percent Hemolysis (red blood cells; 16B day 7, sample 4: 0.2 mM PIC-1, 5' delay, 20 mM GSH+2 eq base): 0.52%
- Percent Hemolysis (red blood cells; 16B day 7, sample 5: 20 mM GSH+2 eq base, 10' delay, 0.2 mM PIC-1): 0.57%
- Percent Hemolysis (red blood cells; 16B day 14, sample 2: standard 0.2 mM PIC-1+2 mM GSH): 0.69%
- Percent Hemolysis (red blood cells; 16B day 14, sample 3: 0.2 mM PIC-1, 1' delay, 20 mM GSH+2 eq base): 0.50%
- Percent Hemolysis (red blood cells; 16B day 14, sample 4: 0.2 mM PIC-1, 5' delay, 20 mM GSH+2 eq base): 0.52%
- Percent Hemolysis (red blood cells; 16B day 14, sample 5: 20 mM GSH+2 eq base, 10' delay, 0.2 mM PIC-1): 0.55%
- Percent Hemolysis (red blood cells; 16B day 22, sample 2: standard 0.2 mM PIC-1+2 mM GSH): 0.87%
- Percent Hemolysis (red blood cells; 16B day 22, sample 3: 0.2 mM PIC-1, 1' delay, 20 mM GSH+2 eq base): 0.59%
- Percent Hemolysis (red blood cells; 16B day 22, sample 4: 0.2 mM PIC-1, 5' delay, 20 mM GSH+2 eq base): 0.62%
- Percent Hemolysis (red blood cells; 16B day 22, sample 5: 20 mM GSH+2 eq base, 10' delay, 0.2 mM PIC-1): 0.63%
- Percent Hemolysis (red blood cells; 16B day 28, sample 2: standard 0.2 mM PIC-1+2 mM GSH): 0.86%
- Percent Hemolysis (red blood cells; 16B day 28, sample 3: 0.2 mM PIC-1, 1' delay, 20 mM GSH+2 eq base): 0.63%
- Percent Hemolysis (red blood cells; 16B day 28, sample 4: 0.2 mM PIC-1, 5' delay, 20 mM GSH+2 eq base): 0.64%
- Percent Hemolysis (red blood cells; 16B day 28, sample 5: 20 mM GSH+2 eq base, 10' delay, 0.2 mM PIC-1): 0.65%
- Percent Hemolysis (red blood cells; 16B day 35, sample 2: standard 0.2 mM PIC-1+2 mM GSH): 0.99%
- Percent Hemolysis (red blood cells; 16B day 35, sample 3: 0.2 mM PIC-1, 1' delay, 20 mM GSH+2 eq base): 0.74%
- Percent Hemolysis (red blood cells; 16B day 35, sample 4: 0.2 mM PIC-1, 5' delay, 20 mM GSH+2 eq base): 0.76%
- Percent Hemolysis (red blood cells; 16B day 35, sample 5: 20 mM GSH+2 eq base, 10' delay, 0.2 mM PIC-1): 0.71%
- Percent Hemolysis (red blood cells; 16B day 43, sample 2: standard 0.2 mM PIC-1+2 mM GSH): 1.17%
- Percent Hemolysis (red blood cells; 16B day 43, sample 3: 0.2 mM PIC-1, 1' delay, 20 mM GSH+2 eq base): 0.82%
- Percent Hemolysis (red blood cells; 16B day 43, sample 4: 0.2 mM PIC-1, 5' delay, 20 mM GSH+2 eq base): 0.90%
- Percent Hemolysis (red blood cells; 16B day 43, sample 5: 20 mM GSH+2 eq base, 10' delay, 0.2 mM PIC-1): 0.83%

Structure (SMILES): N[C@@H](CCC(=O)N[C@@H](CS)C(=O)NCC(=O)O)C(=O)O [glutathione, γ-L-glutamyl-L-cysteinyl-glycine]
- Log VSV reduction [1, 2]: −0.04 Log
- Log VSV titer [1, 2]: 6.25 Log
- Percent Hemolysis (red blood cells; 16B day 0, sample 6: 0.2 mM GSH+2 eq base, no PIC-1): 0.15%
- Percent Hemolysis (red blood cells; 16B day 0.5, sample 6: 0.2 mM GSH+2 eq base, no PIC-1): 0.19%
- Percent Hemolysis (red blood cells; 16B day 0.8, sample 6: 0.2 mM GSH+2 eq base, no PIC-1): 0.51%
- Percent Hemolysis (red blood cells; 16B day 7, sample 6: 0.2 mM GSH+2 eq base, no PIC-1): 0.58%
- Percent Hemolysis (red blood cells; 16B day 14, sample 6: 0.2 mM GSH+2 eq base, no PIC-1): 0.61%
- Percent Hemolysis (red blood cells; 16B day 22, sample 6: 0.2 mM GSH+2 eq base, no PIC-1): 0.60%
- Percent Hemolysis (red blood cells; 16B day 28, sample 6: 0.2 mM GSH+2 eq base, no PIC-1): 0.71%
- Percent Hemolysis (red blood cells; 16B day 35, sample 6: 0.2 mM GSH+2 eq base, no PIC-1): 0.70%
- Percent Hemolysis (red blood cells; 16B day 43, sample 6: 0.2 mM GSH+2 eq base, no PIC-1): 0.75%
